Test results reported in the supplement of paper PMC8253809.

Legend:
SUDIPGVI [1] = diffuse intrinsic pontine glioma line; assay: EC50 (inflection of fitted growth-inhibition curve) (log10 M)
Procedure, shortened: (§1)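 A pin tool was used to add a 10-point threefold dilution series (mean top concentration 35 μM), in triplicate, to patient-derived pHGG/DIPG cell lines and astrocyte controls seeded on 384-well plates coated with 1% Geltrex. After 7 days at 37 °C and 5% CO2 (3 days for iAstro), CellTiter-Glo luminescence was log2-transformed, normalised on each plate to % activity relative to negative (solvent) and positive control wells, and pooled. EC50 and maximal response (yFin) were read from the three- or four-parameter log-logistic fit with the lowest AICc.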

DIPGX7 [2] = H3.3 K27M diffuse intrinsic pontine glioma line; assay: as above
Procedure, shortened: as §1

SUDIPGXXI [3] = diffuse intrinsic pontine glioma line; assay: as above
Procedure, shortened: as §1

HGGX39 [4] = paediatric high-grade glioma line; assay: as above
Procedure, shortened: as §1

DIPGX29 [5] = H3.3 K27M diffuse intrinsic pontine glioma line; assay: as above
Procedure, shortened: as §1

iAstro [6] = astrocyte control; assay: as above
Procedure, shortened: as §1

SUDIPGIV [7] = diffuse intrinsic pontine glioma line; assay: as above
Procedure, shortened: as §1

HGGX42 [8] = H3.3 G34R paediatric high-grade glioma line; assay: as above
Procedure, shortened: as §1

DIPGX37 [9] = H3.3 K27M diffuse intrinsic pontine glioma line; assay: as above
Procedure, shortened: as §1

SUDIPGXIII [10] = diffuse intrinsic pontine glioma line; assay: as above
Procedure, shortened: as §1

SUDIPGXVII [11] = diffuse intrinsic pontine glioma line; assay: as above
Procedure, shortened: as §1

SUDIPGVI [12] = assay: area under dose-response curve of % growth inhibition (log2 RLU vs DMSO / staurosporine), 1e-11 to 1e-4 M (% x log10 M); higher = more growth inhibition
Procedure, shortened: (§2)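 A 10-point threefold dilution series, mean top concentration 35 μM, was applied in triplicate to patient-derived pHGG/DIPG lines and astrocytes on 1% Geltrex-coated 384-well plates for 7 days (3 days for iAstro) at 37 °C, 5% CO2. Per-plate % activity between solvent and positive controls was calculated from log2-transformed CellTiter-Glo luminescence. Area under the curve followed from the trapezoid rule on a log-logistic fit, or on a smoothing spline when the sigmoid fit failed.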

DIPGX7 [13] = assay: as above
Procedure, shortened: as §2

SUDIPGXXI [14] = assay: as above
Procedure, shortened: as §2

HGGX6 [15] = H3.3 G34R paediatric high-grade glioma line; assay: as above
Procedure, shortened: as §2

HABS [16] = astrocyte control; assay: as above
Procedure, shortened: as §2

DIPGX9 [17] = diffuse intrinsic pontine glioma line; assay: as above
Procedure, shortened: as §2

HGGX39 [18] = assay: as above
Procedure, shortened: as §2

DIPGX29 [19] = assay: as above
Procedure, shortened: as §2

iAstro [20] = assay: as above
Procedure, shortened: as §2

HGGX2 = paediatric high-grade glioma line; assay: as above
Procedure, shortened: as §2

SUDIPGXIX [21] = diffuse intrinsic pontine glioma line; assay: as above
Procedure, shortened: as §2

SUDIPGIV [22] = assay: as above
Procedure, shortened: as §2

HGGX42 [23] = assay: as above
Procedure, shortened: as §2

DIPGX37 [24] = assay: as above
Procedure, shortened: as §2

SUDIPGXIII [25] = assay: as above
Procedure, shortened: as §2

SUDIPGXVII [26] = assay: as above
Procedure, shortened: as §2

SUDIPGVI [27] = assay: maximal growth inhibition (yFin) relative to DMSO / staurosporine; higher = more efficacious
Procedure, shortened: as §1

DIPGX7 [28] = assay: as above
Procedure, shortened: as §1

SUDIPGXXI [29] = assay: as above
Procedure, shortened: as §1

HGGX39 [30] = assay: as above
Procedure, shortened: as §1

DIPGX29 [31] = assay: as above
Procedure, shortened: as §1

iAstro [32] = assay: as above
Procedure, shortened: as §1

SUDIPGIV [33] = assay: as above
Procedure, shortened: as §1

HGGX42 [34] = assay: as above
Procedure, shortened: as §1

DIPGX37 [35] = assay: as above
Procedure, shortened: as §1

SUDIPGXIII [36] = assay: as above
Procedure, shortened: as §1

SUDIPGXVII [37] = assay: as above
Procedure, shortened: as §1

HGGX6 [38] = assay: EC50 (inflection of fitted growth-inhibition curve) (log10 M)
Procedure, shortened: as §1

HABS [39] = assay: as above
Procedure, shortened: as §1

DIPGX9 [40] = assay: as above
Procedure, shortened: as §1

SUDIPGXIX [41] = assay: as above
Procedure, shortened: as §1

HGGX6 [42] = assay: maximal growth inhibition (yFin) relative to DMSO / staurosporine; higher = more efficacious
Procedure, shortened: as §1

HABS [43] = assay: as above
Procedure, shortened: as §1

DIPGX9 [44] = assay: as above
Procedure, shortened: as §1

SUDIPGXIX [45] = assay: as above
Procedure, shortened: as §1

Structure (SMILES) | EC50 (log10 M) (SUDIPGVI [1]) | EC50 (log10 M) (HGGX39 [4]) | EC50 (log10 M) (DIPGX29 [5]) | EC50 (log10 M) (SUDIPGIV [7]) | EC50 (log10 M) (HGGX42 [8]) | EC50 (log10 M) (SUDIPGXIII [10]) | EC50 (log10 M) (SUDIPGXVII [11]) | area under dose-response curve (SUDIPGVI [12]) | area under dose-response curve (DIPGX7 [13]) | area under dose-response curve (SUDIPGXXI [14]) | area under dose-response curve (HGGX6 [15]) | area under dose-response curve (HABS [16]) | area under dose-response curve (DIPGX9 [17]) | area under dose-response curve (HGGX39 [18]) | area under dose-response curve (DIPGX29 [19]) | area under dose-response curve (iAstro [20]) | area under dose-response curve (HGGX2) | area under dose-response curve (SUDIPGXIX [21]) | area under dose-response curve (SUDIPGIV [22]) | area under dose-response curve (HGGX42 [23]) | other results
Fc1ccc(-c2c3cccc(C(F)(F)F)c3nn2Cc2ccc(F)cc2Cl)cc1 | -4.94 | -5.05 | -4.98 | -5.12 | -5.03 | -5.05 | -5.16 | 39.9 | 53.6 | 165 | 6.34 | 9.3 | 31.5 | 39.9 | 38.1 | 38.3 | 13.1 | 2.47 | 67.1 | 40.2 | EC50 (log10 M) (DIPGX7 [2]): -5.33; EC50 (log10 M) (SUDIPGXXI [3]): -5.13; EC50 (log10 M) (iAstro [6]): -5.13; EC50 (log10 M) (DIPGX37 [9]): -5.07; area under dose-response curve (DIPGX37 [24]): 53; area under dose-response curve (SUDIPGXIII [25]): 52.8; area under dose-response curve (SUDIPGXVII [26]): 40.7; maximal growth inhibition (SUDIPGVI [27]): 42.8%; maximal growth inhibition (DIPGX7 [28]): 40.8%; maximal growth inhibition (SUDIPGXXI [29]): 112%; maximal growth inhibition (HGGX39 [30]): 38.1%; maximal growth inhibition (DIPGX29 [31]): 38.7%; maximal growth inhibition (iAstro [32]): 33.9%; maximal growth inhibition (SUDIPGIV [33]): 60.3%; maximal growth inhibition (HGGX42 [34]): 38.9%; maximal growth inhibition (DIPGX37 [35]): 49.6%; maximal growth inhibition (SUDIPGXIII [36]): 51.1%; maximal growth inhibition (SUDIPGXVII [37]): 30.9%
Nc1ccc2ncnc(NCCc3ccc(Oc4ccccc4)cc3)c2c1 [EVP4593] | -8.43 | -8.62 | -7.98 | -7.95 | -7.84 | -8.11 | -8.18 | 242 | 447 | 224 | 156 | 141 | 183 | 216 | 179 | 113 | 71.8 | 178 | 296 | 173 | EC50 (log10 M) (HGGX6 [38]): -8.04; EC50 (log10 M) (HABS [39]): -7.75; EC50 (log10 M) (DIPGX9 [40]): -7.97; EC50 (log10 M) (SUDIPGXIX [41]): -7.71; area under dose-response curve (DIPGX37 [24]): 275; area under dose-response curve (SUDIPGXIII [25]): 348; area under dose-response curve (SUDIPGXVII [26]): 171; maximal growth inhibition (SUDIPGVI [27]): 54.6%; maximal growth inhibition (HGGX6 [42]): 38.5%; maximal growth inhibition (HABS [43]): 37.7%; maximal growth inhibition (DIPGX9 [44]): 46.2%; maximal growth inhibition (HGGX39 [30]): 46.7%; maximal growth inhibition (DIPGX29 [31]): 45.1%; maximal growth inhibition (SUDIPGXIX [45]): 47.8%; maximal growth inhibition (SUDIPGIV [33]): 74.9%; maximal growth inhibition (HGGX42 [34]): 44.9%; maximal growth inhibition (SUDIPGXIII [36]): 84.8%; maximal growth inhibition (SUDIPGXVII [37]): 35.9%
